The source of these data is patent US6140354A, “N-substituted aminotetralins as ligands for the neuropeptide Y Y5 receptor useful in the treatment of obesity and other disorders” (Ortho-McNeil Pharmaceutical, Inc., priority 1999, dated 2000).

For this test, the target named is T1, human neuropeptide Y5 receptor (Homo sapiens, UniProt Q15761).
T1 construct: expressed in transfected cells
T1 sequence (Q15761 1-445): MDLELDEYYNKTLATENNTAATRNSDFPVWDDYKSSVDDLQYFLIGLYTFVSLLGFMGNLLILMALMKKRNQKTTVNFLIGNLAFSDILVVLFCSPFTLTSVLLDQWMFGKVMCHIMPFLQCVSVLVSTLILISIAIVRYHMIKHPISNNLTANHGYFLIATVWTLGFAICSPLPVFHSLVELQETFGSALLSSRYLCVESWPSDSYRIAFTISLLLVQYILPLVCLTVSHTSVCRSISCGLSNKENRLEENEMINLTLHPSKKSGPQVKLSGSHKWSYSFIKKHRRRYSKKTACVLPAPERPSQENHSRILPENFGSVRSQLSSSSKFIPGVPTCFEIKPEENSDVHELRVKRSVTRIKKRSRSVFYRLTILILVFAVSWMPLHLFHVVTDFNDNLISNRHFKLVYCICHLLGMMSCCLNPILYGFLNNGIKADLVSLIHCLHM
Description: NPY5 HTS Centrifugation Assay: competition with 125I-PYY for binding to NPY5-transfected HEK293 cell membranes. As to conditions: 80 pM 125I-PYY, 1 hr room temperature, read-out: % Inh @ 3 uM (% Inhibition of ^125 I-PYY Binding). The protocol:
The compounds described in this invention were evaluated for binding to the human neuropeptide Y5 receptor.
The human NPY5 receptor cDNA (Genbank Accession number U66275) was inserted into the vector pClneo (Invitrogen) and transfected into human embryonic kidney cells (HEK-293) via Calcium phosphate method (Cullen 1987). Stably transfected cells were selected with G-418 (600 ug/mL). Stably transfected cells served as the source for the membranes for the NPY5 receptor binding assay.
NPY5-transfected HEK293 cells were grown to confluence in 150 cm^2 culture dishes. Cells were washed once with phosphate-buffered saline (Gibco Cat#14040-133). Cells were then incubated in phosphate-buffered saline without Calcium and without Magnesium, supplemented with 2 mM EDTA. Cells were incubated for 10 minutes at room temperature and the cells were collected by repetitive pipeting. Cells were formed into pellets and then frozen at -80 until needed. Frozen pellets were homogenized with a polytron at full speed for 12 seconds in a homogenization buffer (20 mM Tris HCl, 5 mM EDTA, pH 7.4). Homogenates were centrifuged for 5 minutes at 4C at 200 g. Supernatants were transferred to corex tubes and centrifuged for 25 minutes at 28,000 g. Pellets were re-suspended in Binding (20 mM HEPES, 10 mM NaCl, 0.22 mM KH2 PO4, 1.3 mM CaCl2, 0.8 mM MgSO4, pH 7.4). Membranes were kept on ice until use.
A competition binding assay, known to those skilled in the art, was used in which aminotetralins (I) compete with ^125 I-PYY for binding to cell membranes. In simple terms, the less ^125 I-PYY bound to the membranes implies that a compound is a good inhibitor (competitor). Bound ^125 I-PYY is determined by centrifugation of membranes, aspirating supernatant, washing away residual ^125 I-PYY and subsequently counting the bound sample in a g-counter.
Compounds to be tested were prepared as 10× stocks in binding buffer and added first to assay tubes (RIA vials, Sarstedt). Twenty (20) μL of each 10× compound stock is pipeted into vials and 80 μL of ^125 I-PYY (NEN catalog number NEX240), which has been diluted to a concentration of 200 pM in 0.25% BSA in binding buffer, is added to the compound tubes (final concentration of ^125 I-PYY is 80 pM). To each tube is added 100 μL of membranes and the mixture is agitated by pipeting 2 times. Samples are incubated for 1 hr at room temperature. Aluminum cast plates (Sarstedt) containing the vials are then centrifuged 10 minutes at 3200 rpm in a Sorvall RT6000. Supernatant is then aspirated. To each vial 400 μL PBS is added and this is then aspirated again. Vials are then put in carrier polypropylene 12×75 tube and counted in gamma counter (Packard). Non-specific binding is determined in the presence of 300 nM NPY. Percent inhibition of ^125 I-PYY binding is calculated by subtracting non-specific binding from the test samples (compound (I)), taking these counts and dividing by total binding, and multiplying by 100. Inhibitory concentration values (IC50) of compounds that show appreciable inhibition of ^125 I-PYY binding are calculated by obtaining percent inhibition of ^125 I-PYY binding values at different concentrations of the test compound, and using a graphing program such as GraphPad Prism (San Diego, Calif.) to calculate the concentration of test compound that inhibits fifty-percent of ^125 I-PYY binding (Table 4). These operations are known to those skilled in the art.
On to `COc1ccc2c(c1)CC[C@H](NC[C@H]1CC[C@H](CNS(=O)(=O)c3cccc4ccccc34)CC1)[C@@H]2Cc1ccccc1` (relative stereo) [Compound 51], for which the inhibition at 3 µM stood at 95%.

Take `COc1ccc2c(c1)CC[C@H](NC[C@H]1CC[C@H](CNS(=O)(=O)c3ccccc3)CC1)[C@@H]2Cc1ccccc1` (relative stereo) [Compound 52]: the inhibition at 3 µM amounted to 99%. For the compound `COc1ccc2c(c1)CC[C@H](NC[C@H]1CC[C@H](CNS(=O)(=O)c3ccccc3[N+](=O)[O-])CC1)[C@@H]2Cc1ccccc1` (relative stereo) [Compound 54], the inhibition at 3 µM was 94%.

Consider `COc1ccc2c(c1)CCC(NC[C@H]1CC[C@H](CNS(=O)(=O)c3ccc(S(C)(=O)=O)cc3)CC1)C2Cc1ccccc1` (relative stereo) [Compound 55], for which the inhibition at 3 µM is 90%. `COc1ccc2c(c1)CCC(NC[C@H]1CC[C@H](CNS(=O)(=O)c3cc(Cl)cc(Cl)c3)CC1)C2Cc1ccccc1` (relative stereo) [Compound 56]: the inhibition at 3 µM is 73%. For the compound `COc1ccc2c(c1)CCC(NC[C@H]1CC[C@H](CNS(=O)(=O)c3ccccc3F)CC1)C2Cc1ccccc1` (relative stereo) [Compound 57], the inhibition at 3 µM turned out to be 98%.

Regarding `COc1ccc2c(c1)CCC(NC[C@H]1CC[C@H](CNS(=O)(=O)c3ccc(F)cc3)CC1)C2Cc1ccccc1` (relative stereo) [Compound 58], the inhibition at 3 µM came to 91%. As for `COc1ccc2c(c1)CC[C@H](NC[C@H]1CC[C@H](CNS(=O)(=O)c3cccs3)CC1)[C@@H]2Cc1ccccc1` (relative stereo) [Compound 59], the figure is 102%. Consider `COc1ccc2c(c1)CCC(NC[C@H]1CC[C@H](CNS(=O)(=O)c3ccccc3Cl)CC1)C2Cc1ccccc1` (relative stereo) [Compound 66], for which the inhibition at 3 µM amounted to 99%.

As to `O=[N+]([O-])c1ccccc1S(=O)(=O)NC[C@H]1CC[C@H](CNC2CCc3cc(F)ccc3C2Cc2ccccc2)CC1` (relative stereo) [Compound 72], the inhibition at 3 µM stood at 106%.

Consider `O=S(=O)(NC[C@H]1CC[C@H](CNC2CCc3cc(F)ccc3C2Cc2ccccc2)CC1)c1ccccc1Cl` (relative stereo) [Compound 73], for which the inhibition at 3 µM stood at 107%. As for `O=S(=O)(NC[C@H]1CC[C@H](CNC2CCc3cc(F)ccc3C2Cc2ccccc2)CC1)c1ccccc1Br` (relative stereo) [Compound 74], the figure is 105%; as for `COc1ccc2c(c1)C(Cc1ccccc1)C(NC[C@H]1CC[C@H](CNS(=O)(=O)c3ccc4ccccc4c3)CC1)CC2` (relative stereo) [Compound 80], 75%.

As for `COc1ccc2c(c1)CCC(NC[C@H]1CC[C@H](CNS(=O)(=O)c3ccccc3)CC1)C2Cc1ccc2ccccc2c1` (relative stereo) [Compound 81], the inhibition at 3 µM was found to be 89%. `COc1ccc2c(c1)CCC(NC[C@H]1CC[C@H](CNS(=O)(=O)c3ccc4ccccc4c3)CC1)C2Cc1ccc2ccccc2c1` (relative stereo) [Compound 82]: the inhibition at 3 µM came to 54%. For `COc1cccc(CC2c3ccc(OC)cc3CCC2NC[C@H]2CC[C@H](CNS(=O)(=O)c3ccccc3)CC2)c1` (relative stereo) [Compound 83], the inhibition at 3 µM turned out to be 92%.

For the compound `COc1ccc2c(c1)CCC(NC[C@H]1CC[C@H](CNS(=O)(=O)c3ccccc3)CC1)C2Cc1ccccc1OC` (relative stereo) [Compound 85], the inhibition at 3 µM stood at 74%. As for `COc1ccc2c(c1)CCC(NC[C@H]1CC[C@H](CNS(=O)(=O)c3ccccc3[N+](=O)[O-])CC1)C2Cc1ccc([N+](=O)[O-])cc1` (relative stereo) [Compound 88], the figure is 85%; as for `COc1ccc2c(c1)CCC(NC[C@H]1CC[C@H](CNS(=O)(=O)c3ccccc3)CC1)C2Cc1c(F)cccc1F` (relative stereo) [Compound 89], 98%; as for `COc1ccc2c(c1)CCC(NC[C@H]1CC[C@H](CNS(=O)(=O)c3ccccc3[N+](=O)[O-])CC1)C2Cc1c(F)cccc1F` (relative stereo) [Compound 90], 97%. `COc1ccc2c(c1)CCC(NC[C@H]1CC[C@H](CNS(=O)(=O)c3ccccc3)CC1)C2Cc1ccccc1Cl` (relative stereo) [Compound 95]: the inhibition at 3 µM is 84%. In the case of `COc1ccc2c(c1)CCC(NC[C@H]1CC[C@H](CNS(=O)(=O)c3ccccc3)CC1)C2Cc1ccc(Cl)cc1` (relative stereo) [Compound 97], the inhibition at 3 µM was 90%. With `O=S(=O)(NC[C@H]1CC[C@H](CNC2CCc3cc(F)ccc3C2Cc2ccccc2)CC1)c1ccccc1` (relative stereo) [Compound 103] the figure was 98%; with `O=S(=O)(NC[C@H]1CC[C@H](CNC2CCc3c(Cl)cccc3C2Cc2ccccc2)CC1)c1ccccc1` (relative stereo) [Compound 105], 98%; with `O=S(=O)(NC[C@H]1CC[C@H](CNC2CCc3cccc(Cl)c3C2Cc2ccccc2)CC1)c1ccccc1` (relative stereo) [Compound 106], 104%. As for `O=S(=O)(NC[C@H]1CC[C@H](CNC2CCc3cc(F)c(F)cc3C2Cc2ccccc2)CC1)c1ccccc1` (relative stereo) [Compound 107], the inhibition at 3 µM is 103%. In the case of `COc1cc2c(cc1OC)C(Cc1ccccc1)C(NC[C@H]1CC[C@H](CNS(=O)(=O)c3ccccc3)CC1)CC2` (relative stereo) [Compound 108], the inhibition at 3 µM was 99%. Regarding `O=S(=O)(NC[C@H]1CC[C@H](CNC2CCc3cc(O)c(O)cc3C2Cc2ccccc2)CC1)c1ccccc1` (relative stereo) [Compound 109], the inhibition at 3 µM was found to be 101%. Consider `O=S(=O)(NCCCCNC1CCc2ccccc2C1Cc1ccccc1)c1ccc2ccccc2c1` (stereo not shown) [Compound 45], for which the inhibition at 3 µM turned out to be 58%.

Regarding `COc1ccc2c(c1)CCC(NCCCCCCCCNS(=O)(=O)c1ccc3ccccc3c1)C2Cc1ccccc1` (stereo not shown) [Compound 48], the inhibition at 3 µM turned out to be 68%.

For `COc1ccc2c(c1)CCC(NC1CCC(NS(=O)(=O)c3ccc4ccccc4c3)CC1)C2Cc1ccccc1` (stereo not shown) [Compound 50], the inhibition at 3 µM is 44%. For the compound `COc1ccc2c(c1)CCC(NC[C@H]1CC[C@H](CNS(=O)(=O)c3cccc(F)c3)CC1)C2Cc1ccccc1` (stereo partly shown) [Compound 60], the inhibition at 3 µM is 94%. With `COc1ccc2c(c1)CCC(NC[C@H]1CC[C@H](CNS(=O)(=O)c3ccc(Cl)cc3Cl)CC1)C2Cc1ccccc1` (stereo partly shown) [Compound 61] the figure was 94%; with `COc1ccc2c(c1)CCC(NC[C@H]1CC[C@H](CNS(=O)(=O)c3cccc([N+](=O)[O-])c3)CC1)C2Cc1ccccc1` (stereo partly shown) [Compound 62], 95%; with `COc1ccc2c(c1)CCC(NC[C@H]1CC[C@H](CNS(=O)(=O)c3ccc([N+](=O)[O-])cc3)CC1)C2Cc1ccccc1` (stereo partly shown) [Compound 63], 93%. As for `O=[N+]([O-])c1ccccc1S(=O)(=O)NC[C@H]1CC[C@H](CNC2CCc3cc(Cl)ccc3C2Cc2ccccc2)CC1` (stereo partly shown) [Compound 64], the figure is 93%; as for `COc1ccc2c(c1)CCC(NC[C@H]1CC[C@H](CNS(=O)(=O)c3ccccc3C(F)(F)F)CC1)C2Cc1ccccc1` (stereo partly shown) [Compound 65], 0%.

For orientation: inhibition means the relative decrease from the control value, in per cent.
